Key:
Ishikawa cells [1] = assay: Acridine orange staining, autophagy; assay type: cell-based, human; settings: Ishikawa cells, 0.1, 0.5 and 1 µM
Experimental: Compound 14 was evaluated for its ability to induce autophagy by acridine orange staining assay. […] This shift towards red fluorescence represents an elevation in autophagic flux, reflecting an active process of cellular degradation and recycling.
The Autophagy induction ability of compound 14 was assessed by acridine orange staining which is used to measure the autophagic acidic vesicular organnelles. Ishikawa cell were seeded in a six-well plate and treated with compound 14 for 48 h. Incubation of the cells was done with 1 mg/mL Acridine orange (Cat no. A9231) before the termination of the experiment. Cells were then washed with PBS and then analysed with a fluorescence microscope. […] A9231.

Ishikawa cells [2] = assay: Intracellular ROS (DCFDA staining); assay type: cell-based, human; settings: Ishikawa cells, 100, 500 and 1000 nM, 24 h, vs untreated control
Excerpt: The intracellular ROS levels in control and compound 14-treated cells were examined using the DCFDA fluorescent dye.
Dichlorodihydrofluorescin diacetate (DCFHDA) is a fluorogenic dye that measures hydroxyl, peroxyl, and other reactive oxygen species (ROS) activity within the cell. The oxidative conversion of DCFH-DA to DCF (2′, 7′ -dichlorofluorescein) leads to the detection of intracellular ROS. As such, an increase in intracellular ROS is indicative of apoptosis in cancer cells Ishikawa cells were treated with compound-14 at 100, 500, and 1000 nM concentrations for 24 h. After 24h cells were stained with DCFHDA (20 µM) (Cat no, 287810) for 45 min. After 45 min, cells were washed with PBS buffer and analysed with a fluorescence microscope.

[3] = tested on: CDK1 protein in Ishikawa cells; assay: Western blotting, cell cycle proteins; assay type: cell-based, human; settings: 24 h treatment
Experimental: Western blot analysis was performed to assess the involvement of proteins in the cell cycle arrest effects of compound 14 on Ishikawa cells.
Ishikawa cells were treated with compound-14 at 100, 500, and 1000 nM concentrations for 24 h. After 24h cells were collected and centrifuged at 400 g, washed in PBS and cell pellets were lysed in RIPA buffer in preparation of the whole cell lysate. Supernatants were collected and proteins were estimated using the Bradford reagent. An equal amount of protein (60–80 µg) was loaded into each well for SDS-PAGE. Blocking was done with 5% BSA at room temperature with shaking for 2 h. After the SDS page run was completed, we washed the PVDF membrane and then blocking was done. Blots were incubated with different primary antibodies(1:1000 dilutions), and secondary antibodies (1:10 000 dilutions) and chemiluminescence was captured on Chemidoc after incubating the blots in ECL plus solution.
Primary Antibodies: LC3B Antibody (Cell signalling Technology, Cat No:2775), Cyclin B1 (Cell signalling Technology, Cat No:4138), SKP-2 (Cell signalling Technology, Cat No:4358), CDK1 (Abcam, Anti-CDK1 antibody [A17]), cdc25c (Cell signalling Technology, Cat No:4688); internal control: Actin (Sigma Aldrich, Cat No: A5441);

Ishikawa cell lines = assay: In-vitro cytotoxicity (MTT cell viability assay); assay type: cell-based; settings: Homo sapiens; Ishikawa cell lines, MTT, 48 h incubation, mean ± SD, at least three experiments; read-out: IC50 values (Ishikawa cell lines, µM ± SD), in-vitro growth inhibition
Experimental: The cell growth inhibitory effects of the synthesised compounds were evaluated against Ishikawa cell lines. […] Forth, the synthesised compounds bearing a substituted phenyl ring at position 2 of the biaryl arm bearing benzopyrans were profiled for the cytotoxic effects. Noteworthy to mention that diverse substitutions with varied electronic effects viz fluorine (−I, +R), methoxy (−I, +R), and nitro (−I and − R) were made on the phenyl ring (position 2 of benzopyran). Also, the trimethoxy phenyl ring well established as an imperative structural feature of tubulin inhibitors was tethered to the benzopyran scaffold (20, 21).
Ishikawa cells (a human endometrial carcinoma of the epithelial cell) were kindly gifted by Dr. Geetanjali Sachdeva and Dr. Uddhav Chaudhari of National Institute for Research In Reproductive and Child Health (NIRRCH), Mumbai. […] The cells were maintained in RPMI medium supplemented with 10% Foetal bovine serum (FBS) and 100 IU/mL penicillin.
Mitochondrial activity was evaluated by MTT assay.[59] This assay is based on enzymatic reduction of the yellow-colored MTT dye to purple-colored formazan crystals by a variety of mitochondrial and cytosolic enzymes that are operational in viable cells. Briefly, […] (3000 cells/well) were seeded in 100 µL of medium into a 96-well plate and left to settle in a CO2 incubator. […] Then 150 μL of DMSO was added to each well to dissolve the formazan crystals. The optical density (OD) of each well was recorded using a microplate reader at a wavelength of 570 nm. The percentages of cell viability and growth inhibition were calculated according to the following equations. Cell viability (%) = [(OD of treated cells-OD of blank)/(OD of control-OD of blank) ×100].

## O=c1cc(-c2ccc(F)cc2)oc2cc(-c3ccoc3)ccc12 [Compound 14, 2–(4-fluorophenyl)-7-(furan-3-yl)-4H-chromen-4-one]
Ishikawa cells [1]
  Autophagy induction (acridine orange staining): induces autophagy by increasing autophagic flux in a concentration-dependent manner
Ishikawa cells [2]
  Intracellular ROS levels (DCFDA fluorescence): significant increase in fluorescence intensity
[3]
  Expression of CDK1 protein (western blot): downregulated the expression of CDK1 protein
Ishikawa cell lines
  IC50: 1 ± 0.4 µM
